Source: ChEMBL document CHEMBL5465560, “Selectivity Literature for EUbOPEN Chemogenomic Library” (2024)
Substitutions are numbered along the chain they refer to.

What was measured:
Type in all cases: cell-based
Details in all cases: at 1 µM
[1] = system: T1, Receptor-type tyrosine-protein kinase FLT3 (Homo sapiens), P36888 [R834Q]; assay: (§1) Selectivity interaction (Ambit KINOMEscan and KiNATiv profiling in Jurkat cells) EUB0000090b FLT3
T1 sequence (whole entry): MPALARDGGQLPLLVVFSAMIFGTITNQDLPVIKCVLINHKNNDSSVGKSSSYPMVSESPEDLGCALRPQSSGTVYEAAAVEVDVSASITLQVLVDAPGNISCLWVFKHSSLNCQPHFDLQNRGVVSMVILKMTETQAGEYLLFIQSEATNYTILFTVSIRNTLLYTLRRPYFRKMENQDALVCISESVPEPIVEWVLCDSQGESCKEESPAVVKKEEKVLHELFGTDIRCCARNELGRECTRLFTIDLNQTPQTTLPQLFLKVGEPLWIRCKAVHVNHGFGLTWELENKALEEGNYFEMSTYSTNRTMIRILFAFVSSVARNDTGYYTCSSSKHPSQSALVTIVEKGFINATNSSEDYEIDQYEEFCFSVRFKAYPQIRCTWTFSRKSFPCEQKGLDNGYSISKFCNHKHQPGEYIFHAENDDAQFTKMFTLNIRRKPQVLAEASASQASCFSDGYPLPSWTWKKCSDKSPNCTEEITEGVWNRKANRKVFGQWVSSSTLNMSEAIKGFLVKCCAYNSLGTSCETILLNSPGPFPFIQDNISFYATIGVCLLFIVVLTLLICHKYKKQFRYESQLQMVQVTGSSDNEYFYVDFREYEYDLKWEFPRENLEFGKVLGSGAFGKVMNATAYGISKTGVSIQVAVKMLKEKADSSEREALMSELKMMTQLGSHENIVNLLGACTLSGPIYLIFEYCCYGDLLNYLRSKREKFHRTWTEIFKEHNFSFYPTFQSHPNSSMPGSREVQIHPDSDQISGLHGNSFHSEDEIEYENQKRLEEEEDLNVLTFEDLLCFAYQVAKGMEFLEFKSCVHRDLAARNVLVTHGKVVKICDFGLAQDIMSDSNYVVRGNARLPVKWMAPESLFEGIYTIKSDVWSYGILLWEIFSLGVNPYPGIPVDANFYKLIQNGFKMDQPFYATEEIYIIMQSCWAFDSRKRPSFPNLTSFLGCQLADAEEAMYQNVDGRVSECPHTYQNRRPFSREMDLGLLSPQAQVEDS

[2] = system: T2, Receptor-type tyrosine-protein kinase FLT3 (Homo sapiens), P36888 [K663Q]; assay: as §1
T2 sequence (whole entry): T1 sequence (whole entry) with K663Q, Q834R

[3] = system: T3, Receptor-type tyrosine-protein kinase FLT3 (Homo sapiens), P36888 [N841I]; assay: as §1
T3 sequence (whole entry): T1 sequence (whole entry) with Q834R, N841I

CN(C)C/C=C/C(=O)Nc1ccc(C(=O)N2CCCC(Nc3ncc(Cl)c(-c4c[nH]c5ccccc45)n3)C2)cc1 (stereo not drawn)
% of control [1]: 92% | % of control [2]: 84% | % of control [3]: 89%
